Experimental data from patent US8357659B2, “Method of treating pain or itching with APETx2 peptide toxin” (priority 2008, dated 2013).

Tests used:
[1] = system: cutaneous pain induced by moderate acidification; experiment: Nociceptive behaviour in rats after subcutaneous injection of moderately acidic solutions; format: in vivo, rat; conditions: FIG. 5A
Protocol: Adult (7-8 weeks' old) male Wistar rats (Charles River, France) were placed in plastic cages with a nyctohemeral period of 12 h (with light between 8 a.m. and 8 p.m.) and with free access to food and water. The rats were left to acclimatize for at least one week before the experiments. For the behavioural experiments, the rats were placed in a transparent observation chamber where they were acclimatized for 20-30 minutes. They were subsequently immobilised while 20 μl of saline solution (0.9% or 2% of NaCl+20 mM of HEPES, […] or 60 nM of PcTx1 toxin), was administered subcutaneously to the dorsal side of the right hind paw using a 30G needle connected to a 100 μl Hamilton syringe. The nociceptive behaviour (i.e. the number of hind leg quiverings) was recorded over a 5-minute period, starting immediately after the injection ([ref. 59]).

human ASIC3 channels = biological target: T1, human ASIC3 channels (Homo sapiens, UniProt Q9UHC3); experiment: Whole cell patch clamp of human ASIC3 in transfected F-11 cells; format: cell-based; conditions: APETx2 at 1 μM; acidification pH 8.0 to pH 7.0
T1 construct: expressed in transfected cells; host or cells: F-11 cells, vector pASIC3h-IRES-EGFP, JetPEI
T1 sequence (Q9UHC3 1-531): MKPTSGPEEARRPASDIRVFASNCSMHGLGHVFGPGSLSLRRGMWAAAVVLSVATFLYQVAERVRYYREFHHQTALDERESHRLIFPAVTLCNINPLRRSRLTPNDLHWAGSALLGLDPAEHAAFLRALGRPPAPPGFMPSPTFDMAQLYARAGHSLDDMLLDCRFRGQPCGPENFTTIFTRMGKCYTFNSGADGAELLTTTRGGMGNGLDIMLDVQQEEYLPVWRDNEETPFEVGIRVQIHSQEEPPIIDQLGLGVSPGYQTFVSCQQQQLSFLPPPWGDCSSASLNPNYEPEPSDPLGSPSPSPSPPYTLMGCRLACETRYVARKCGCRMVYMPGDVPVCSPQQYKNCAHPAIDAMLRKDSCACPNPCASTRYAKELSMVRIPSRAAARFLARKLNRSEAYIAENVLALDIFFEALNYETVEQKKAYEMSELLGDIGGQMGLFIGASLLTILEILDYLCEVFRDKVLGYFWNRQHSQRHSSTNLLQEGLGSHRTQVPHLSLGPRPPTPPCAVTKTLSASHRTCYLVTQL
Protocol: F-11 cells (refs. 44, 45, 46, 47]) were cultured in 5% of CO2 at a density of 50,000 cells per 35 mm Petri dish. The culture medium contained HAM F-12 medium (Invitrogen) supplemented with 15% foetal bovine serum (ICN Biomedicals), 1×HAT (sodium hypoxanthine, aminopterine and thymidine), 200 μg/ml of allo-4-hydroxy-L-proline (Sigma-Aldrich) and 1% antibiotics. One day after seeding, the cells were transfected with ASIC1a or ASIC3 DNAc (rat clones) using Lipofectamine™ (Invitrogen) according to the manufacturer's instructions using the vectors pCI-ASIC1ar+pIRES2-EGFP (ratio 1:2) or pCI-ASIC3r+pIRES2-EGFP (ratio 1:10) ([ref. 36]), quoted above). For the experiments concerning the human ASIC3 clone (refer to experiments on the effects of the APETx2 toxin on the human form of the ASIC3 channel), the cells were transfected with the DNAc of human ASIC3 using the transfection agent JetPEI (Polypus Transfection) according to the manufacturer's instructions with the aid of the vector pASIC3h-IRES-EGFP. […]
The whole cell configuration of the patch clamp method was used ([ref. 48]) in order to measure the membrane currents (imposed voltage) or the membrane potentials (imposed current). […] The data were sampled at 10 kHz, digitised using a Digidata 1322A A-D/D-A converter (Axon Instruments) and recorded on a hard disk using pClamp software (version 9.2.0.11, Axon Instruments). […]

ASIC2a = biological target: T2, ASIC2a (Rattus norvegicus, UniProt Q62962); conditions: cited from earlier work
T2 sequence (Q62962 1-512): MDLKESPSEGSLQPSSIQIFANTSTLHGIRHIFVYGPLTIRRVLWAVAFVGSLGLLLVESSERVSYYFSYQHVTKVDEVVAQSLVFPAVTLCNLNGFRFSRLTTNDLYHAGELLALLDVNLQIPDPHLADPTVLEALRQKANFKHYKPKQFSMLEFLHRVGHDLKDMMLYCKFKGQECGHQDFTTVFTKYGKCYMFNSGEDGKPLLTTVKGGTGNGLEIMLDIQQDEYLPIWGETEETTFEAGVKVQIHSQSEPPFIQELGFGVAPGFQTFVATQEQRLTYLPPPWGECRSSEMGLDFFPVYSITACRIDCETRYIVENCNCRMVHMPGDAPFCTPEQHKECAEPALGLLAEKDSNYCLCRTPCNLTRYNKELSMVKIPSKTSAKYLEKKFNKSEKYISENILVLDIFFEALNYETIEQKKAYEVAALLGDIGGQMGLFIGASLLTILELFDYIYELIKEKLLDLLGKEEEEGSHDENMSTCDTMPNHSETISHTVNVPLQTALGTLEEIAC

For “peptide of 42 amino acids (SEQ ID NO: 3), three disulphide bonds, from sea anemone Anthopleura elegantissima; blocks ASIC3 [APETx2]”, the “behaviour in response to acid pain with inflammatory signals” value ([1]; pH 6.9 + 2% NaCl + AA, 10 μM APETx2 or 60 nM PcTx1 in injected solution) was “markedly reduced”, the “pain behaviour after subcutaneous injection of acidic solution” value ([1]; pH 6.9, 10 μM APETx2 in injected solution) was “suppressed” and the “amplitude of the human ASIC3 currents” value (human ASIC3 channels) was “significantly reduced”. For the same substance, the “effect on ASIC2a isoform” value (ASIC2a) was “does not have any effect”.
